Data: patent publication US9255073B2, “1-benzyl-3-hydroxymethylindazole derivatives and use thereof in the treatment of diseases based on the expression of MCP-1, CX3CR1 and p40” (AZIENDE CHIM. RIUN. ANG. FRANC. A.C.R.A.F. S.p.A., priority 2008, dated 2016)
Structures can show the parent of a compound that is named as a salt.

Tests used:
[1] = system: MCP-1; assay: Production of MCP-1 protein by LPS-stimulated MonoMac6 cells (ELISA); type: cell-based; settings: Homo sapiens, MONO-MAC-6, MonoMac6, 1 h preincubation, LPS 100 ng/ml 20 h, ELISA of supernatant; for inhibition at 75 µM: 75 μM (maximum soluble concentration); for inhibition at 150 µM: 150 μM (maximum soluble concentration); for inhibition at 30 µM: 30 μM (maximum soluble concentration)
Method: (§1) The capacity of the compounds to inhibit the expression of the protein MCP-1 by lipopolysaccharide (LPS)-stimulated MonoMac6 cells was evaluated. The cells were placed in 96-well plates at a concentration of 50 000 cells/well. The compounds were tested at the maximum soluble concentration given in Table 2 (in the range 30-300 μM) and incubated for 1 hour. The cells were then stimulated with LPS (100 ng/ml) for 20 hours.
The amount of MCP-1 produced was measured in the supernatants, suitably diluted with buffer, by means of an immunoenzymatic test (ELISA) using a commercial kit (ELISA MCP-1/JE, R&D Systems).

[2] = system: p40; assay: Gene expression of p40 in LPS-stimulated MonoMac6 cells (real-time RT-PCR); type: cell-based, human; settings: MonoMac6, 1 h preincubation, LPS 100 ng/ml 4 h
Method: as §1, with “p40” for “the protein MCP-1”, “4” for “2”, “4” for “20”
(§2) The total RNA was extracted from the cell pellet using the RNeasy mini kit (Qiagen), reverse-transcribed with the TaqMan Reverse transcription reagents synthesis kit (Applied Biosystems) and the cDNA obtained was used for the real-time PCR reaction. The amplification was obtained in 96-well plates using the ABI Prism 7000 sequence detection system (Applied Biosystems), by applying the following temperature profile: 50° C. for 2 minutes, 95° C. for 10 minutes and 45 cycles at 95° C. for 15 seconds and 60° C. for 1 minute. For the amplification, a set of primers and probe specific for human p40 was used (Applied Biosystems, RefSeq NM_002187.2). A set of primers and probe for β-actin was used in separate wells as an internal control of the samples for the purposes of normalization. Once the reaction had taken place, the fluorescence data were analysed using the ABI Prism 7000 SDS software, by calculating the threshold cycle (Ct) for each sample and subsequently performing a relative quantification via the ΔΔCt method.

[3] = system: CX3CR1; assay: Gene expression of CX3CR1 in LPS-stimulated MonoMac6 cells (real-time RT-PCR); type: cell-based, human; settings: MonoMac6, 1 h preincubation, LPS 100 ng/ml 20 h
Method: as §1, with “of CX3CR1” for “of the protein MCP-1”, “Table 3” for “Table 2”
as §2, with “CX3CR1” for “p40”, “NM_001337.3).” for “NM_002187.2).”

[4] = system: MCP-1; assay: Gene expression of MCP-1 in LPS-stimulated MonoMac6 cells (real-time RT-PCR); type: cell-based, human; settings: MonoMac6, 1 h preincubation, LPS 100 ng/ml 4 h
Method: as §1, with “of” for “of the protein”, “1” for “2”, “4” for “20”
as §2, with “MCP-1” for “p40”, “NM_002982.3).” for “NM_002187.2).”

[5] = 150 μM (maximum soluble concentration)
[6] = 300 μM (maximum soluble concentration)
[7] = 30 μM (maximum soluble concentration)

With `CC(C)(CN1CCOCC1)OCc1nn(Cc2ccccc2)c2ccccc12.O=C(O)/C=C\C(=O)O` [Compound 18, 1-benzyl-3-[(1,1-dimethyl-2-morpholin-4-ylethoxy)methyl]-1H-indazole maleate] the inhibition at 75 µM [1] was 85%, the “% inhibition of p40 expression (mRNA)” value ([2]; 75 μM (maximum soluble concentration)) was 39% and the melting point was 87 to 88 °C.
For `CN(C)CCOCc1nn(Cc2ccccc2)c2ccccc12.Cl` [Compound 14, 2-[(1-benzyl-1H-indazol-3-yl)methoxy]-N,N-dimethylethanamine hydrochloride], the inhibition at 150 µM [1] was 64%, the “% inhibition of CX3CR1 expression (mRNA)” value [3, 5] was 96% and the “% inhibition of MCP-1 expression (mRNA)” value [4, 5] was 52%.
Compound `COc1ccc2c(c1)c(CO)nn2Cc1ccccc1` [Compound 9, (1-benzyl-5-methoxy-1H-indazol-3-yl)methanol] has a melting point of 97 to 98 °C.
Compound `OCc1nn(Cc2ccc(Cl)cc2)c2ccccc12` [Compound 4, [1-(4-chlorobenzyl)-1H-indazol-3-yl]methanol] has an inhibition at 75 µM [1] of 85%.
With `Cc1cc(Cl)ccc1Cn1nc(CO)c2ccccc21` [Compound 8, [1-(4-chloro-2-methylbenzyl)-1H-indazol-3-yl]methanol] the inhibition at 30 µM [1] was 75%.
With `OCCOCc1nn(Cc2ccccc2)c2ccccc12` [Compound 13, 2-[(1-benzyl-1H-indazol-3-yl)methoxy]ethanol] the inhibition at 300 µM [1, 6] was 78%, the “% inhibition of CX3CR1 expression (mRNA)” value [3, 6] was 90% and the melting point was 67 to 69 °C. The “% inhibition of MCP-1 expression (mRNA)” value [4, 6] was 55%.
`COc1ccc(Cn2nc(CO)c3ccccc32)cc1` [Compound 2, [1-(4-methoxybenzyl)-1H-indazol-3-yl]methanol] gave a melting point of 95 to 97 °C.
With `CC(C)(CO)OCc1nn(Cc2ccccc2)c2ccccc12` [Compound 17, 2-[(1-benzyl-1H-indazol-3-yl)methoxy]-2-methylpropan-1-ol] the inhibition at 150 µM [1] was 82%, the “% inhibition of p40 expression (mRNA)” value [2, 5] was 37% and the “% inhibition of CX3CR1 expression (mRNA)” value [3, 5] was 88%. For the same compound, the melting point was 52 to 53 °C and the “% inhibition of MCP-1 expression (mRNA)” value [4, 5] was 53%.
In the case of `Cc1cc(Cl)ccc1Cn1nc(C(C)O)c2ccccc21` (centres unmarked) [Compound 12, 1-[1-(4-chloro-2-methylbenzyl)-1H-indazol-3-yl]ethanol], the inhibition at 30 µM [1] is reported as 76%.
`CN(C)CCCOCc1nn(Cc2ccccc2)c2ccccc12` [Compound 15, 3-[(1-benzyl-1H-indazol-3-yl)methoxy]-N,N-dimethylpropan-1-amine hydrochloride] showed an inhibition at 75 µM [1] of 44%.
`OCc1nn(Cc2ccc(Cl)cc2Cl)c2ccccc12` [Compound 6, [1-(2,4-dichlorobenzyl)-1H-indazol-3-yl]methanol] showed an inhibition at 30 µM [1] of 54%.
Work on `CC(C)(O)c1nn(Cc2ccc(Cl)cc2Cl)c2ccccc12` [Compound 11, 2-[1-(2,4-dichlorobenzyl)-1H-indazol-3-yl]propan-2-ol] yielded an inhibition at 30 µM [1] of 88%.
With `Cc1cc(Cl)ccc1Cn1nc(C(C)(C)O)c2ccccc21` [Compound 10, 2-[1-(4-chloro-2-methylbenzyl)-1H-indazol-3-yl]propan-2-ol] the inhibition at 30 µM [1] was 81%, the “% inhibition of p40 expression (mRNA)” value [2, 7] was 65% and the “% inhibition of CX3CR1 expression (mRNA)” value [3, 7] was 89%. For the same compound, the melting point was 72 to 74 °C and the “% inhibition of MCP-1 expression (mRNA)” value [4, 7] was 72%.
For `OCc1nn(Cc2ccccc2)c2ccccc12` [Compound 1, 1-benzyl-3-hydroxymethyl-indazole], the inhibition at 150 µM [1] was 54%, the “% inhibition of p40 expression (mRNA)” value [2, 5] was 32% and the “% inhibition of CX3CR1 expression (mRNA)” value [3, 5] was 72%. The “% inhibition of MCP-1 expression (mRNA)” value [4, 5] was 30%.
